Measurements reported in patent US5260286A, “2-piperidinecarboxylic acid derivatives useful as NMDA receptor antagonists” (Japan Tobacco, Inc., priority 1992, dated 1993).
pKi: −log10 of the molar value. Like-named read-outs stand apart in the source and are kept apart here.

Key:
NMDA-Induced Lethality = assay: In vivo protection in the mouse against NMDA-induced lethality; design: species or system male Swiss-Webster mice; conditions: ip; for ED50: Mus musculus, read-out: PD50
Experimental: (§1) According to the method described by Ferkany et al. (1988), the test compounds were administered ip to four male Swiss-Webster mice (26-34 g) each, following 30 minutes later, 200 mg/kg of NMDA was administered to the mice each. […] Those compounds that protected three or more of the mice at any of the doses were evaluated further by determining the ED50 values using three or more doses with the eight mice per dose. The ED50 was estimated by the method of Litchfield and Wilcoxin (1949). Water-soluble compounds were dissolved in distilled water and administered in a volume of 10 mL/kg. Water-insoluble compounds were suspended in an aqueous solution of 0.5% methyl cellulose and administered in a volume of 20 mL/kg.

NMDA recognition site = conditions: Lehman et al., 1988; Murphy et al., 1987; cited from earlier work
NMDA receptor = assay: In vitro binding assay, inhibition of [^3 H]CGS-19755 binding at the NMDA receptor site (semipurified synaptic membranes from rat forebrain); design: species or system Adult male Sprague-Dawley rats; conditions: 10 nM [^3 H]CGS-19755, 15 minutes at 4° C., 50 mM Tris-citrate pH 7.1; read-out: Ki [^3 H]CGS19755
Experimental: The compounds of the invention were tested for their ability to inhibit [^3 H]CGS-19755 binding. Semipurified synaptic membranes were prepared according to the method of Bristow et al. (1986) with minor modifications. Adult male Sprague-Dawley rats were decapitated, and the forebrains were removed, weighed and homogenized in 20 volumes of 0.32M sucrose. The homogenate was centrifuged at 27,000×G for 15 minutes. The pellet was resuspended in 20 volumes of distilled water followed by centrifugation at 8000×G for […]. Both the supernatant and the buffy coat layer, removed with 5 mM Tris-Cl (2 mL), pH 7.8, were pooled and centrifuged at 27,000×G for 15 minutes. The supernatant was removed and the pellet was covered with a small amount of 5 mM Tris-HCl and stored at -20° C. for least 18 hours. Membranes were then washed four times in 50 mM Tris-citrate, pH 7.1, and finally resuspended in the same buffer. This suspension was used for the binding assay immediately or frozen for subsequent use.
Aliquots of membranes (800 μl) were incubated with 10 nM [^3 H]CGS-19755 (100 μl) and varying concentrations of the test compounds (100 μl) for 15 minutes at 4° C. Then a filtration assay was used. The samples were filtered over glass fiber filters using a Brandel Cell Harvester. […]
Ki values were calculated from the equation: [formula]

[1] = Lethality of NMDA in mice; design: species or system male Swiss-Webster mice; conditions: mouse, in vivo
Experimental: as §1

[2] = 30 minutes before 200 mg/kg NMDA, Litchfield and Wilcoxin

| Structure (SMILES) | ED50 (NMDA-Induced Lethality; 30 minutes before 200 mg/kg NMDA, eight mice per dose, Litchfield and Wilcoxin) [mg/kg] | Confidence Limits (of PD50) (NMDA-Induced Lethality; [2]) | Slope (NMDA-Induced Lethality; [2]) | antagonists at the NMDA recognition site (NMDA recognition site) | pKi (NMDA receptor) | ED50 (NMDA-Induced Lethality) [mg/kg] | mortality ([1]; 200 mg/kg NMDA, read-out: mice died at 200 mg/kg NMDA) [%] | LD50 ([1]; mice) [mg/kg] |
| --- | --- | --- | --- | --- | --- | --- | --- | --- |
| O=C(O)[C@H]1C[C@@H](CP(=O)(O)O)CCN1 (relative stereo) [CGS-19755, cis-4-(phosphonomethyl)-2-piperidinecarboxylicacid] | 2 | 1.2-3.6 | 2.46 | high-affinity antagonists | 6.95 |  |  |  |
| O=C(O)C1C/C(=C/P(=O)(O)O)CCN1 (centres unmarked) [E-4-(phosphonomethylidene)-2-piperidinecarboxylic acid] |  | 0.5-2.2 | 1.96 |  | 6.23 | 1.1 |  |  |
| CN[C@H](CC(=O)O)C(=O)O [NMDA, N-methyl-D-aspartate] |  |  |  |  |  |  | ~90 | 164 |
